Data taken from patent publication US20130041005A1, “PHARMACEUTICAL COMPOSITIONS COMPRISING NEUROPILIN INHIBITORS, AND THEIR USE FOR THE PREVENTION AND/OR TREATMENT OF ANGIOGENIC DISORDERS AND CANCERS” (TRAGEX PHARMA, priority 2011, published 2013).
Entries after “also recorded” stand apart in the source; their conditions may differ.

How the values were obtained:
Type in all cases: cell-based
RAJI = assay: WST-1 proliferation assay, RAJI; conditions: Homo sapiens; Burkitt's lymphoma RAJI; read-out: Anti-proliferative activity IC50 (μM) ± SD
Procedure: (§1) All the cancer cell lines were maintained in cultured in DMEM GlutaMAX™ (GIBCO Invitrogen, France, cat no 31966047) enhanced with 10% foetal bovine serum (GIBCO Invitrogen, France, cat no 10270-106) and 1% penicillin G/streptomycin (GIBCO Invitrogen, France, cat no 15140-122). Only Panc-10.5 cells were cultivated in RPMI 1640 medium (Gibco) supplemented with 2 mM L-glutamine, 1.5 g/L sodium bicarbonate, 4.5 g/L glucose, 10 mM HEPES, 1 mM sodium pyruvate, 10 Units/ml human insulin, […] (SVF): 15% (75 ml in 500 ml of medium).
(§2) Cells were grown as subconfluent monolayer and cultured in 75 cm^2 flasks at 37° C., 5% CO2 in a humidified atmosphere, and medium was changed every two days. […]
(§3) The cell proliferation WST-1 assay is a colorimetric assay for the quantification of cell proliferation and viability, based on the enzymatic cleavage of the tetrazolium salt WST-1 added to the culture medium, to a water soluble colored formazan dye, detected by absorbance at 450 nm, by mitochondrial succinate-tetrazolium reductase in viable cells. […]
(§4) After an incubation period of 72 h, at day 4, were prepared the 19 ml medium with reagent WST-1 1 ml ([…]). […] The cells were incubated at 37° C. in a humidified atmosphere of 5% CO2 for 1 h 30 and the absorbance at 450-655 nm was measured by Microplate Manager 5.2 (Bio-Rad).

[1] = tested on: endothelial (HUVEC) cells; assay: Apoptosis assay (Annexin V-FITC/PI), HUVEC; conditions: IC50 concentration, 72 h (FIG. 2B)
Procedure: The level of apoptosis in endothelial (HUVEC) and breast cancer cells (MDA-MB-231) was detected by Annexin V-FITC Apoptosis Detection Kit (ref 556547, BD Biosciences, France) according to the manufacturer's instructions. Briefly, HUVEC and MDA-MB-231 cells were treated separately with DMSO (control) and the compounds of the invention at the concentration corresponding to the IC50, obtained by the proliferation assay, for 72 h. After treatment, all cell including both detached and attached cells were collected, centrifugated at 14000 rpm for 5 min and the apoptotic cells were detected by staining with Annexin V-FITC and (propidium iodide) PI. The cells were resuspended in 100 μl Annexin V binding buffer (10 mM Hepes/NaOH, pH 7.4, 140 mM NaCl, […]) containing 5 μl of Annexin V-FITC and 5 μl of PI (propidium iodide). Samples were gently mixed and incubated for 2 h on ice and in the dark. Viable and apoptotic cell were detected by flow citometry (FACS Calibur Becton Dickinson, France). Apoptotic cells include both the early apoptotic portion (Annexin V-positive) and the late apoptotic portion (Annexin V- and PI-positive). Staurosporine is used as a positive control of apoptosis induction.

HT-1080 = assay: WST-1 proliferation assay, HT-1080; conditions: Homo sapiens; Fibrosarcoma HT-1080; read-out: Anti-proliferative activity IC50 (μM) ± SD
Procedure: as §1, §2, §3, §4

U2OS = assay: WST-1 proliferation assay, U2OS; conditions: Homo sapiens
MIA PaCa-2 = assay: WST-1 proliferation assay, MIA PaCa-2; conditions: Homo sapiens; Pancreas MIA PaCa-2, 72 h; read-out: Anti-proliferative activity IC50 (μM) ± SD
Text: Several cancer cell lines were used: breast cancer cells (MDA-MB-231 (ATTCC® Number HTB-26™), MDA-MB-436 (ATTCC® Number HTB-130™), MDA-MB-438, BT-474 (ATTCC® Number HTB-20™)); cervical cancer cells (HeLa (ATTCC® Number CCL-2™)); colon cancer cells (HCT-116 (ATTCC® Number CCL-247™) and HT-29 (ATTCC® Number HTB-38™)); osteosarcoma cells (U2OS (ATTCC® Number HTB-96™)); pancreas cancer cells (MIA PaCa-2 (ATTCC® Number CRL-1420™) and Panc-10.5 (ATTCC® Number CRL-2547™)); prostate cancer cells (PC-3 (ATTCC® Number CRL-1435™) and LNCaP (ATTCC® Number CRL-1740™)); brain cancer cells (U87 glioblastoma (ATTCC® Number HTB-14™) and SH-SYSY neuroblastoma (ATTCC® Number CRL-2266™)). […]
After observation of cells under the microscope, old media were removed and the adherent cells washed gently twice with PBS (Phosphate Buffer Saline, —Ca^2+, —Mg^2+, Lonza cat no: 17-512F/12). […] 50 μl of this solution were transferred in 20 μl of isotonic solution and the cells were counted by count cellular (Beckman Coulter). […]
as §3

HCT-116 = assay: WST-1 proliferation assay, HCT-116; conditions: Homo sapiens; HCT-116, 0.05 μM

SMILES | IC50 (RAJI) [µM] | induction of apoptosis in endothelial cells [1] | IC50 (HT-1080) [µM] | inhibition at 0.05 µM (U2OS) [%] | IC50 (MIA PaCa-2) [µM] | inhibition at 0.05 µM (HCT-116) [%]
Cc1ccc(-c2nc3ccccc3[nH]2)cc1NC(=S)NC(=O)c1ccc2c(c1)OCCO2 [Compound 1, N-[5-(1H-benzimidazol-2-yl)-2-methylphenyl]-N′-(2,3-dihydro-1,4-benzodioxin-6-ylcarbonyl)thiourea] | 1.5 ± 0.01 | induced the apoptosis; also recorded: induction of apoptosis | 0.3 ± 0.23 | 9 | 1 | 0
O=C(NC(=S)Nc1cccc(-c2nc3ccccc3[nH]2)c1)c1ccc2c(c1)OCCO2 [Compound 2, N-[3-(1H-benzimidazol-2-yl)phenyl]-N′-(2,3-dihydro-1,4-benzodioxin-6-ylcarbonyl)thiourea] | 1.3 ± 0.04 | induced the apoptosis; also recorded: induction of apoptosis | 0.07 ± 0.03 | 18 | 1 | 25
